The values below come from patent publication US11891365B2, “3-alkyl-4-amido-bicyclic [4,5,0] hydroxamic acids as HDAC inhibitors” (Valo Health, Inc., priority 2015, dated 2024).

The test addresses T1, Full length human recombinant HDAC6 protein (Homo sapiens, UniProt Q9UBN7).
T1 sequence (Q9UBN7 1-1215): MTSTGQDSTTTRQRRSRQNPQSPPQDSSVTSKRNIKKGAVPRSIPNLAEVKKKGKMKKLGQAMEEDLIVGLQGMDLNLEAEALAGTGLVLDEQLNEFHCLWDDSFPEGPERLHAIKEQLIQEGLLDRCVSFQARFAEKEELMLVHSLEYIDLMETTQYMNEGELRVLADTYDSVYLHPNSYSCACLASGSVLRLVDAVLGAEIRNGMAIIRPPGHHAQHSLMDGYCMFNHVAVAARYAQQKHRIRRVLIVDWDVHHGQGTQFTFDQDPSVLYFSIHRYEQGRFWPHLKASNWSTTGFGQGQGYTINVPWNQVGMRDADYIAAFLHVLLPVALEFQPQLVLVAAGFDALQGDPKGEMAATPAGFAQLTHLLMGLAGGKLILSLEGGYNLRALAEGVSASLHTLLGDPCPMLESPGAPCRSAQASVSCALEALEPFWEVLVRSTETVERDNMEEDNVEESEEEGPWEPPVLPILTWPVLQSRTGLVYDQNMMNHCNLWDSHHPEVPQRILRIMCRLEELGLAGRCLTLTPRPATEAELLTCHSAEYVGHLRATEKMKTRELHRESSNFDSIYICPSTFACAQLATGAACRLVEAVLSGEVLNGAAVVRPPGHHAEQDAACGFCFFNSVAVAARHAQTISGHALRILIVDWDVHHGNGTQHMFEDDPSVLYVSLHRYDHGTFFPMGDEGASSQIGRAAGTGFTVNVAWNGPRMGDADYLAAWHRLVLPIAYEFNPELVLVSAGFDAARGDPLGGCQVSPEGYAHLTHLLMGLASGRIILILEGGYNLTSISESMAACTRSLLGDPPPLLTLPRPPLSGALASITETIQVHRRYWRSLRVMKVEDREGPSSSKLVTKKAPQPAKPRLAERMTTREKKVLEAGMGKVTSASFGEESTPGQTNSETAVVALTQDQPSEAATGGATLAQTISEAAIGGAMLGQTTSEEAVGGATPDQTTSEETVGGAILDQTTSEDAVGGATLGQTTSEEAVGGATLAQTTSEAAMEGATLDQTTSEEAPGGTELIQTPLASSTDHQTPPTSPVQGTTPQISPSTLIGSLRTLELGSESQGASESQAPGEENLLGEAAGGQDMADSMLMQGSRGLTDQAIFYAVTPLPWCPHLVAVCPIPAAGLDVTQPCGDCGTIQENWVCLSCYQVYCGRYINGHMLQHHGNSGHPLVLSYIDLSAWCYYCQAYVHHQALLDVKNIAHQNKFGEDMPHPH
The experiment in a line: In vitro histone deacetylase assay: enzymatic HDAC6 electrophoretic mobility shift assay. Type of test: biochemical. The conditions noted are these: 1 nM enzyme, 2 μM peptide substrate RHKK(Ac)-NH2, 25° C., 12 concentrations; read-out: Inhibitory Concentration (IC50) Values against HDAC6, Activity Range. On the technique in general: In EMSA bound probe runs differently from free probe, usually more slowly.

A value given as a limit tells only on which side of the number the result lay.

Take `O=C(NO)c1ccc2c(c1)OCCN(C(=O)C(c1ccccc1)n1cnnn1)C2` (stereo not drawn) [N-hydroxy-4-(2-phenyl-2-(1H-tetrazol-1-yl)acetyl)-2,3,4,5-tetrahydrobenzo[f][1,4]oxazepine-8-carboxamide]: the IC50 fell in the range of 100 to 500 nM. The value for `C[C@H]1COc2cc(C(=O)NO)ccc2CN1C(=O)C(C)(C)c1cccnc1` [(S)-N-hydroxy-3-methyl-4-(2-methyl-2-(pyridin-3-yl)propanoyl)-2,3,4,5-tetrahydrobenzo[f][1,4]oxazepine-8-carboxamide] was at most 100 nM.

Regarding `O=C(NO)c1ccc2c(c1)OCCN(C(=O)C1(c3ccc(F)cc3)CC1)C2` [4-(1-(4-fluorophenyl)cyclopropane-1-carbonyl)-N-hydroxy-2,3,4,5-tetrahydrobenzo[f][1,4]oxazepine-8-carboxamide], the IC50 was at most 100 nM. The value for `C[C@H]1OCCC[C@@H]1C(=O)N1Cc2ccc(C(=O)NO)cc2OC[C@@H]1C` [(S)-N-hydroxy-3-methyl-4-((2R,3S)-2-methyltetrahydro-2H-pyran-3-carbonyl)-2,3,4,5-tetrahydrobenzo[f][1,4]oxazepine-8-carboxamide] was at most 100 nM. The value for `O=C(NO)c1ccc2c(c1)OCCN(C(=O)C1CCCCC1)C2` [4-(cyclohexanecarbonyl)-N-hydroxy-2,3,4,5-tetrahydrobenzo[f][1,4]oxazepine-8-carboxamide] was at most 100 nM; that for `O=C(NO)c1ccc2c(c1)OCCN(C(=O)CN1CCOCC1)C2` [N-hydroxy-4-(2-morpholinoacetyl)-2,3,4,5-tetrahydrobenzo[f][1,4]oxazepine-8-carboxamide] was over 500 nM; that for `CC(C)[C@@H]1COc2cc(C(=O)NO)ccc2CN1C(=O)C1(C)CCC1` [(R)-N-hydroxy-3-isopropyl-4-(1-methylcyclobutane-1-carbonyl)-2,3,4,5-tetrahydrobenzo[f][1,4]oxazepine-8-carboxamide] was over 500 nM.

For the compound `O=C(NO)c1ccc2c(c1)OCCN(C(=O)C1(Oc3ccccc3)CC1)C2` [N-hydroxy-4-(1-phenoxycyclopropane-1-carbonyl)-2,3,4,5-tetrahydrobenzo[f][1,4]oxazepine-8-carboxamide], the IC50 was 100 to 500 nM.

For the compound `CC(C)C(=O)N1CCOc2cc(C(=O)NO)ccc2C1` [N-hydroxy-4-isobutyryl-2,3,4,5-tetrahydrobenzo[f][1,4]oxazepine-8-carboxamide], the IC50 is at most 100 nM.

For the compound `O=C(NO)c1ccc2c(c1)OCCN(C(=O)C1(Cn3cccn3)CC1)C2` [4-(1-((1H-pyrazol-1-yl)methyl)cyclopropane-1-carbonyl)-N-hydroxy-2,3,4,5-tetrahydrobenzo[f][1,4]oxazepine-8-carboxamide], the IC50 was at most 100 nM. The value for `CC(=O)N1Cc2ccc(C(=O)NO)cc2O[C@H](C)C1` [(R)-4-acetyl-N-hydroxy-2-methyl-2,3,4,5-tetrahydrobenzo[f][1,4]oxazepine-8-carboxamide] was over 500 nM. The value for `O=C(NO)c1ccc2c(c1)OCCN(C(=O)c1ccc3c(c1)CCO3)C2` [4-(2,3-dihydrobenzofuran-5-carbonyl)-N-hydroxy-2,3,4,5-tetrahydrobenzo[f][1,4]oxazepine-8-carboxamide] was 100 to 500 nM. In the case of `O=C(NO)c1ccc2c(c1)O[C@@H](c1ccccc1)CN(C(=O)C1CCOCC1)C2` [(S)-N-hydroxy-2-phenyl-4-(tetrahydro-2H-pyran-4-carbonyl)-2,3,4,5-tetrahydrobenzo[f][1,4]oxazepine-8-carboxamide], the IC50 was at most 100 nM. The value for `CC(C)(C)OC(=O)N1CCC2(CCC(C(=O)N3CCOc4cc(C(=O)NO)ccc4C3)CC2)CC1` [tert-butyl 9-(8-(hydroxycarbamoyl)-2,3,4,5-tetrahydrobenzo[f][1,4]oxazepine-4-carbonyl)-3-azaspiro[5.5]undecane-3-carboxylate] was 100 to 500 nM. As to `CC(C)(C(=O)N1CCOc2cc(C(=O)NO)ccc2C1)c1ccc2ccccc2c1` [N-hydroxy-4-(2-methyl-2-(naphthalen-2-yl)propanoyl)-2,3,4,5-tetrahydrobenzo[f][1,4]oxazepine-8-carboxamide], the IC50 lay within 100 to 500 nM. Regarding `C[C@H]1COc2cc(C(=O)NO)ccc2CN1C(=O)C1CCCCC1` [(S)-4-(cyclohexanecarbonyl)-N-hydroxy-3-methyl-2,3,4,5-tetrahydrobenzo[f][1,4]oxazepine-8-carboxamide], the IC50 was at most 100 nM. The value for `CC(C)(C)OC(=O)N1CCC2(CC1)OC(C(=O)N1CCOc3cc(C(=O)NO)ccc3C1)c1ccccc12` (stereo not drawn) [tert-butyl 3-(8-(hydroxycarbamoyl)-2,3,4,5-tetrahydrobenzo[f][1,4]oxazepine-4-carbonyl)-3H-spiro[isobenzofuran-1,4′-piperidine]-1′-carboxylate] was 100 to 500 nM; that for `CC(=O)N1Cc2ccc(C(=O)NO)cc2OC[C@@H]1C` [(S)-4-acetyl-N-hydroxy-3-methyl-2,3,4,5-tetrahydrobenzo[f][1,4]oxazepine-8-carboxamide] was 100 to 500 nM; that for `CC(C)(C)OC(=O)N1CCC2(CCCC2C(=O)N2CCOc3cc(C(=O)NO)ccc3C2)C1` (stereo not drawn) [tert-butyl 6-(8-(hydroxycarbamoyl)-2,3,4,5-tetrahydrobenzo[f][1,4]oxazepine-4-carbonyl)-2-azaspiro[4.4]nonane-2-carboxylate] was 100 to 500 nM. The value for `O=C(NO)c1ccc2c(c1)OCCN(C(=O)C1(Cn3ccnc3)CC1)C2` [4-(1-((1H-imidazol-1-yl)methyl)cyclopropane-1-carbonyl)-N-hydroxy-2,3,4,5-tetrahydrobenzo[f][1,4]oxazepine-8-carboxamide] was at most 100 nM; that for `CCCNc1c(C(=O)N2CCOc3cc(C(=O)NO)ccc3C2)sc2ccccc12` [N-hydroxy-4-(3-(propylamino)benzo[b]thiophene-2-carbonyl)-2,3,4,5-tetrahydrobenzo[f][1,4]oxazepine-8-carboxamide] was at most 100 nM. The value for `CC1(C(=O)N2Cc3ccc(C(=O)NO)cc3OCC2(C)C)CCC1` [N-hydroxy-3,3-dimethyl-4-(1-methylcyclobutane-1-carbonyl)-2,3,4,5-tetrahydrobenzo[f][1,4]oxazepine-8-carboxamide] was over 500 nM; that for `CC1(C(=O)N2CCOc3cc(C(=O)NO)ccc3C2)CC1` [N-hydroxy-4-(1-methylcyclopropane-1-carbonyl)-2,3,4,5-tetrahydrobenzo[f][1,4]oxazepine-8-carboxamide] was at most 100 nM; that for `O=C(NO)c1ccc2c(c1)OCC1(CC1)N(C(=O)C1CCOCC1)C2` [N-hydroxy-4-(tetrahydro-2H-pyran-4-carbonyl)-4,5-dihydro-2H-spiro[benzo[f][1,4]oxazepine-3,1′-cyclopropane]-8-carboxamide] was at most 100 nM. As for `CC(C)COc1ccc(C(C)(C)C(=O)N2CCOc3cc(C(=O)NO)ccc3C2)cc1` [N-hydroxy-4-(2-(4-isobutoxyphenyl)-2-methylpropanoyl)-2,3,4,5-tetrahydrobenzo[f][1,4]oxazepine-8-carboxamide], the IC50 was in the range of 100 to 500 nM. The value for `COc1cccc(C(C)(C)C(=O)N2CCOc3cc(C(=O)NO)ccc3C2)c1` [N-hydroxy-4-(2-(3-methoxyphenyl)-2-methylpropanoyl)-2,3,4,5-tetrahydrobenzo[f][1,4]oxazepine-8-carboxamide] was 100 to 500 nM; that for `O=C(NO)c1ccc2c(c1)OCCN(C(=O)C1(c3ccccc3)CCOCC1)C2` [N-hydroxy-4-(4-phenyltetrahydro-2H-pyran-4-carbonyl)-2,3,4,5-tetrahydrobenzo[f][1,4]oxazepine-8-carboxamide] was 100 to 500 nM. With `CC(C)(C(=O)N1CCOc2cc(C(=O)NO)ccc2C1)c1ccc(F)cc1` [4-(2-(4-fluorophenyl)-2-methylpropanoyl)-N-hydroxy-2,3,4,5-tetrahydrobenzo[f][1,4]oxazepine-8-carboxamide], the IC50 lay in the range of 100 to 500 nM. As for `CC(CC(=O)N1CCOc2cc(C(=O)NO)ccc2C1)c1ccccc1` (stereo not drawn) [N-hydroxy-4-(3-phenylbutanoyl)-2,3,4,5-tetrahydrobenzo[f][1,4]oxazepine-8-carboxamide], the IC50 lay within 100 to 500 nM. With `C[C@H]1c2ccc(C(=O)NO)cc2OCCN1C(=O)[C@@]1(C)CCCOC1` [(S)-N-hydroxy-5-methyl-4-((S)-3-methyltetrahydro-2H-pyran-3-carbonyl)-2,3,4,5-tetrahydrobenzo[f][1,4]oxazepine-8-carboxamide], the IC50 was at most 100 nM.
